Laboratory results reported in BindingDB's records for doi:10.1016/j.bmcl.2010.05.049 (University of Athens, 2010).

Test: Binding affinity to Influenza A Weybridge(H7N7) virus Matrix protein 2 by spectrophotometry

| SMILES | Kd |
| --- | --- |
| C1CCC2(NC1)C1CC3CC(C1)CC2C3 (stereo unspecified) | 390 nM |
| CC1CCC2(N1)C1CC3CC(C1)CC2C3 (stereo unspecified) | 1500 nM |
| C1CNC2(C1)C1CC3CC(C1)CC2C3 (stereo unspecified) | 1160 nM |
| CC1(N)C2CC3CC(C2)CC1C3 (stereo unspecified) | 3600 nM |
| C1CCC(C23CC4CC(CC(C4)C2)C3)NC1 (stereo unspecified) | 1510 nM |
| NC12CC3CC(C1)CC(F)(C3)C2 | 4860 nM |
| CCC1(N)C2CC3CC(C2)CC1C3 (stereo unspecified) | 6700 nM |
| O=C1CCC2(N1)C1CC3CC(C1)CC2C3 (stereo unspecified) | 1490 nM |
| CCC1CCC2(N1)C1CC3CC(C1)CC2C3 (stereo unspecified) | 5580 nM |
| CCCC1(N)C2CC3CC(C2)CC1C3 (stereo unspecified) | 8710 nM |
| C1CNC(C23CC4CC(CC(C4)C2)C3)C1 (stereo unspecified) | 510 nM |
| CN1CCCC12C1CC3CC(C1)CC2C3 (stereo unspecified) | 2930 nM |
| NC1C2CC3CC(C2)CC1C3 (stereo unspecified) [2-Adamantanamine] | 2360 nM |
| NC1CCCCCC1 [Cycloheptanamine] | 16200 nM |
| NC1CCCCCCC1 [Cyclooctanamine] | 1830 nM |
| NC12CC3CC(CC(C3)C1)C2 [SYMADINE] | 320 nM |
